Publication PMC9737648, “Novel Approaches for the Solid-Phase Synthesis of Dihydroquinazoline-2(1H)-One Derivatives and Biological Evaluation as Potential Anticancer Agents” (Molecules, 2022)

Tests used:
[1] = test system: human liver cancer cells (HepG-2); test: MTT cytotoxicity assay, HepG-2; assay type: cell-based; details: 72-h incubation
Description: (§1) The above cells were tested for cytotoxicity to identify the most promising antitumor drug among the synthesized quinazolinone derivatives.
(§2) An MTT assay was used to evaluate the in vitro cytotoxicity of the new compounds. The MTT assay depends on the reduction of soluble 3-([…])-2,5-diphenyl-tetrazolium bromide (MTT) into a blue purple formazan product, mainly by mitochondrial reductase activity inside living cells. […] The cells were suspended in growth medium and plated in 96-well culture plates at a density of 4 × 10^4 cells/well and incubated at 37 °C in a 5% CO2 incubator. […] Each experiment was performed at least 3 times.

[2] = test system: breast cancer cells (MDA-MB-231); test: MTT cytotoxicity assay, MDA-MB-231; assay type: cell-based, human; details: 72-h incubation
Description: as §1, §2

[3] = test system: ovarian cancer cells (A2780); test: MTT cytotoxicity assay, A2780; assay type: cell-based, human; details: 72-h incubation
Description: as §1, §2

[4] = test system: human hepatic stellate cells (LX-2); test: MTT cytotoxicity assay, LX-2 normal control; assay type: cell-based; details: 72-h incubation
Description: as §1, §2

[5] = DPPH• free radical scavenging assay; details: for IC50: concentration required to scavenge 50% of the DPPH, 30 min in the dark
Description: The quinazolinone derivatives were evaluated for their free radical scavenging activity at 320, 160, 80, 40, 20, and 10 µM concentration using the DPPH radical method, with ascorbic acid as the positive control (Table 3).
The antiradical activity of the compounds was estimated according to a slight modification of the procedure reported by Morales and Jimenez-Perez. […] Each sample (100 μL) at a different concentration was added to a freshly prepared solution of 1,1-diphenyl-2-picrylhydrazyl (DPPH•) radical (0.2 mM, 100 μL). The mixtures (200 μL) were placed in a 96-well microplate, shaken vigorously, and then left to stand for 30 min in the dark. Then, absorbance was immediately measured at a wavelength of 517 nm. Vc was used as the standard. The antiradical activity for each compound was determined in the Vc equivalent antioxidant capacity. The DPPH• solution in the presence of ethanol and in the absence of compounds was tested and used as a negative control. […] In all experiments, the samples were analyzed in triplicate, and activity for each compound was presented as the mean value ± SEM and used for evaluation of structure–activity relationships. […] Absorbance was taken at 520 nm using a microplate reader (Tecan, Männedorf, Switzerland).

Compound | IC50 [5] [µM] | IC50 ([1]; Homo sapiens, HepG2, 72 h) [µM] | IC50 ([2]; Homo sapiens) [µM] | IC50 ([3]; Homo sapiens, A2780, 72 h) [µM] | IC50 ([4]; Homo sapiens) [µM] | IC50 [1] [µM] | IC50 [3] [µM] | antioxidant activity (in words) ([5]; DPPH assay) | IC50 [2] [µM] | IC50 [4] [µM]
CN1C(=O)NC(CC(N)=O)c2cc(NC(=O)COc3ccccc3)ccc21 (stereo not shown) [CA6-b, N-[4-(2-amino-2-oxoethyl)-1-methyl-2-oxo-1,2,3,4-tetrahydroquinazolin-6-yl]-2-phenoxyacetamide] | > 1000 | 88 ± 1.39 | > 100 | > 100 | > 100 |  |  |  |  | 
NCCCN1C(=O)NC(CC(=O)NC(CO)C(N)=O)c2cc(NC(=O)c3ccncc3)ccc21 (stereo not shown) [CA1-a, 3-{4-{2-[(1-amino-3-hydroxy-1-oxopropan-2-yl)amino]-2-oxoethyl}-6-(isonicotinamido)-2-oxo-3,4-dihydroquinazolin-1(2H)-yl}propan-1-aminium 2,2,2-trifluoroacetate] | > 1000 | 54.4 ± 3.45 | 86 ± 2.06 | 80 ± 2.15 | > 100 |  |  |  |  | 
NCCCN1C(=O)NC(CC(=O)NC(CO)C(N)=O)c2cc(NC(=O)c3cccnc3)ccc21.O=C(O)C(F)(F)F (stereo not shown) [CA1-e, 3-{4-{2-[(1-amino-3-hydroxy-1-oxopropan-2-yl)amino]-2-oxoethyl}-6-(nicotinamido)-2-oxo-3,4-dihydroquinazolin-1(2H)-yl}propan-1-aminium 2,2,2-trifluoroacetate] | > 1000 | < 50 | 85.7 ± 5.3 | < 40 | > 100 | 37.6 ± 5.53 | 22.76 ± 0.22 | no antioxidant activity |  | 
NCCCN1C(=O)NC(CC(=O)NC(CO)C(N)=O)c2cc(NC(=O)c3ccccn3)ccc21 (stereo not shown) [CA1-f, 3-{4-{2-[(1-amino-3-hydroxy-1-oxopropan-2-yl)amino]-2-oxoethyl}-2-oxo-6-(picolinamido)-3,4-dihydroquinazolin-1(2H)-yl}propan-1-aminium 2,2,2-trifluoroacetate] | > 1000 | < 50 | 81.3 ± 1.21 | > 100 | 97 ± 4.24 | 44.4 ± 2.2 |  |  |  | 
CN1C(=O)N(S(=O)(=O)c2ccccc2F)C(CC(N)=O)c2cc(NS(=O)(=O)c3ccccc3F)ccc21 (stereo not shown) [CA7-b′, 2-{6-[(2-fluorophenyl)sulfonamido]-3-[(2-fluorophenyl)sulfonyl]-1-methyl-2-oxo-1,2,3,4-tetrahydroquinazolin-4-yl}acetamide] | > 1000 | 95.3 ± 5.47 | > 100 | > 100 | > 100 |  |  |  |  | 
CN1C(=O)NC(CC(N)=O)c2cc(NC(=O)c3cccnc3)ccc21 (stereo not shown) [CA6-a, N-[4-(2-amino-2-oxoethyl)-1-methyl-2-oxo-1,2,3,4-tetrahydroquinazolin-6-yl]nicotinamide] | > 1000 | > 100 | > 100 | > 100 | > 100 |  |  |  |  | 
4-{2-{1-(3-ammoniopropyl)-2-oxo-6-[2-(thiophen-2-yl)acetamido]-1,2,3,4-tetrahydroquinazolin-4-yl}acetamido}-4-carbamoylpiperidin-1-aminium 2,2,2-trifluoroacetate [CA5] | 465 ± 8.61 |  |  |  |  | 65.5 ± 3.16 | 32.3 ± 6.21 |  | 74.81 ± 0.27 | > 100
NCCCN1C(=O)NC(CC(=O)NC(CO)C(N)=O)c2cc([N+](=O)[O-])ccc21 (stereo not shown) [CA1-6, 3-{4-{2-[(1-amino-3-hydroxy-1-oxopropan-2-yl)amino]-2-oxoethyl}-6-nitro-2-oxo-3,4-dihydroquinazolin-1(2H)-yl}propan-1-aminium 2,2,2-trifluoroacetate] | > 1000 | 52.3 ± 3.45 | 81.2 ± 1.54 | 83.2 ± 2.69 | 97.9 ± 15.6 |  |  |  |  | 
NCCCN1C(=O)NC(CC(=O)NC(CO)C(N)=O)c2cc(NC(=O)c3ccc(F)cc3)ccc21 (stereo not shown) [CA1-d, 3-{4-{2-[(1-amino-3-hydroxy-1-oxopropan-2-yl)amino]-2-oxoethyl}-6-(4-fluorobenzamido)-2-oxo-3,4-dihydroquinazolin-1(2H)-yl}propan-1-aminium 2,2,2-trifluoroacetate] | > 1000 | < 50 | 85.7 ± 4.87 | 88.3 ± 8.56 | > 100 | 49.6 ± 1.91 |  |  |  | 
CC(C)CCN1C(=O)NC(CC(=O)NC(CCCN)C(N)=O)c2cc(NC(=O)CCc3cccnc3)ccc21 (stereo not shown) [CA3, 5-amino-4-{2-{1-isopentyl-2-oxo-6-[3-(pyridin-3-yl)propanamido]-1,2,3,4-tetrahydroquinazolin-4-yl}acetamido}-5-oxopentan-1-aminium 2,2,2-trifluoroacetate] | > 1000 | 64.2 ± 4.69 | 86 ± 11.1 | 82.9 ± 2.13 | > 100 |  |  |  |  | 
COc1ccccc1S(=O)(=O)Nc1ccc2c(c1)C(CC(=O)NC(CO)C(N)=O)NC(=O)N2CCCN (stereo not shown) [CA1-j, 3-{4-{2-[(1-amino-3-hydroxy-1-oxopropan-2-yl)amino]-2-oxoethyl}-6-[(2-methoxyphenyl)sulfonamido]-2-oxo-3,4-dihydroquinazolin-1(2H)-yl}propan-1-aminium 2,2,2-trifluoroacetate] | > 1000 | 73.8 ± 1.03 | 76.3 ± 2.05 | 83.6 ± 1.24 | > 100 |  |  |  |  | 

Further lines, with some results ahead:

IC50 [5] [µM] | Compound | IC50 ([1]; Homo sapiens, HepG2, 72 h) [µM] | IC50 ([2]; Homo sapiens) [µM] | IC50 ([3]; Homo sapiens, A2780, 72 h) [µM] | IC50 ([4]; Homo sapiens) [µM] | IC50 [1] [µM] | IC50 [3] [µM] | antioxidant activity (in words) ([5]; DPPH assay) | IC50 [2] [µM] | IC50 [4] [µM]
> 1000 | NCCCN1C(=O)NC(CC(=O)NC(CO)C(N)=O)c2cc(NC(=O)c3ccccc3)ccc21 (stereo not shown) [CA1-b, 3-{4-{2-[(1-amino-3-hydroxy-1-oxopropan-2-yl)amino]-2-oxoethyl}-6-benzamido-2-oxo-3,4-dihydroquinazolin-1(2H)-yl}propan-1-aminium 2,2,2-trifluoroacetate] | 60.1 ± 3.88 | 76.6 ± 2.42 | > 100 | 85.8 ± 4.28 |  |  |  |  | 
> 1000 | COc1ccccc1S(=O)(=O)Nc1ccc2c(c1)C(CC(N)=O)NC(=O)N2C (stereo not shown) [CA7-a, 2-{6-[(2-methoxyphenyl)sulfonamido]-1-methyl-2-oxo-1,2,3,4-tetrahydroquinazolin-4-yl}acetamide] | 86.4 ± 3.42 | 87.7 ± 2.58 | 82.9 ± 2.68 | > 100 |  |  |  |  | 
951 ± 30.6 | CC(C)(NC(=O)CC1NC(=O)N(Cc2ccccc2)c2ccc(NC(=O)COc3ccccc3)cc21)C(N)=O (stereo not shown) [CA4, 2-{2-[1-benzyl-2-oxo-6-(2-phenoxyacetamido)-1,2,3,4-tetrahydroquinazolin-4-yl]acetamido}-2-methylpropanamide] | 72.7 ± 2.76 | 87.1 ± 4.47 | 66.2 ± 4.1 | 72.9 ± 0.91 |  |  |  |  | 
387 ± 58.8 | Cc1ccc(C(=O)Nc2ccc3c(c2)C(CC(=O)NC(CO)C(N)=O)NC(=O)N3CCCN)cc1 (stereo not shown) [CA1-c, 3-{4-{2-[(1-amino-3-hydroxy-1-oxopropan-2-yl)amino]-2-oxoethyl}-6-(4-methylbenzamido)-2-oxo-3,4-dihydroquinazolin-1(2H)-yl}propan-1-aminium 2,2,2-trifluoroacetate] | < 50 | 92.4 ± 4.91 | > 100 | 85.4 ± 1.78 | 48.1 ± 2.34 |  |  |  | 
22.5 ± 0.57 | O=C1O[C@H]([C@@H](O)CO)C(O)=C1O [Vc, ascorbic acid, reference compound] |  |  |  |  |  |  |  |  | 
557 ± 24.5 | NCCCN1C(=O)NC(CC(=O)NC(CO)C(N)=O)c2cc(NC(=O)Cc3cccs3)ccc21 (stereo not shown) [CA1-i, 3-{4-{2-[(1-amino-3-hydroxy-1-oxopropan-2-yl)amino]-2-oxoethyl}-2-oxo-6-[2-(thiophen-2-yl)acetamido]-3,4-dihydroquinazolin-1(2H)-yl}propan-1-aminium 2,2,2-trifluoroacetate] | 49.77 ± 0.12 | 89.7 ± 3.79 | < 40 | > 100 |  | 34.4 ± 5.61 |  |  | 
